Consider two compounds from paper PMC5068545, “Glycan Specificity of P[19] Rotavirus and Comparison with Those of Related P Genotypes” (Journal of Virology, 2016).

Test [1] deals with T1, P[19] VP8* (Human rotavirus A, UniProt A7YCM0).
T1 construct: gene VP4; VP8* domain (aa 46-231) of spike polyprotein VP4; E. coli BL21 GST fusion; GST cut with thrombin for NMR, kept in ELISA and glycan array
Put plainly: 1H-15N HSQC NMR titration. The class given is binding. Conditions: 20°C, pH 8.0, 10 mM Tris-HCl, 100 mM NaCl; 0.25 mM 15N-labelled VP8*, GST removed. From the text:
1H-15N HSQC NMR titration on P[19]

In test [2] the target is T1, P[19] VP8*. Put plainly: ELISA-based oligosaccharide binding. Conditions: GST-VP8*; labelled compound (biotin conjugate, multivalent); weak signal. From the text:
ELISA-based oligosaccharide binding on P[19] […] RVs recognized LNFPI and LNT | Low binding signals were detected for all four P[II] RVs

Test [3] addresses T2, P[8] VP8* (Human rotavirus A, UniProt A0A509GLV6).
T2 construct: VP8* domain of spike polyprotein VP4; GST fusion from E. coli BL21
Description: ELISA-based oligosaccharide binding. The note with it: GST-VP8*; labelled compound (biotin conjugate, multivalent); weak signal. From the text: ELISA-based oligosaccharide binding on P[8] […] RVs
In general terms: In an ELISA, binding on a coated surface is turned into a signal by an enzyme label.

For test [4], the target named is T3, P[4] VP8* (Human rotavirus (SEROTYPE 2 / STRAIN DS1), UniProt P11196).
T3 construct: VP8* domain of spike polyprotein VP4; GST fusion from E. coli BL21; DS1 is only the modelling template
Description: ELISA-based oligosaccharide binding. Conditions: GST-VP8*; labelled compound (biotin conjugate, multivalent); weak signal. From the text: ELISA-based oligosaccharide binding on P[4] […] RVs

Broadly, the Kd is the concentration at which binding is half-saturated. In test [1], `CC(=O)N[C@H]1[C@H](O[C@H]2[C@@H](O)[C@@H](CO)O[C@@H](O[C@H]3[C@H](O)[C@@H](O)C(O)O[C@@H]3CO)[C@@H]2O)O[C@H](CO)[C@@H](O)[C@@H]1O[C@@H]1O[C@H](CO)[C@H](O)[C@H](O)[C@H]1O[C@@H]1O[C@@H](C)[C@@H](O)[C@@H](O)[C@@H]1O` (stereo partly shown) [LNFPI, Fucα1-2Galβ1-3GlcNAcβ1-3Galβ1-4Glc] had a Kd of 2600 µM.
In the case of `CC(=O)N[C@H]1C(O)O[C@H](CO)[C@@H](O)[C@@H]1O[C@@H]1O[C@H](CO)[C@H](O)[C@H](O)[C@H]1O` (stereo partly shown) [lacto-N-biose, Galβ1-3GlcNAc], the ELISA-based oligosaccharide binding entry in test [2], in test [3] and in test [4] was “Low binding signals were detected for all four P[II] RVs” throughout.
